Each block holds one compound with its values, some of them ahead of it.
Assays:
[1] = tested on: K-Ras induced lung tumors; assay: K-Ras mediated lung tumor multiplicity in INK-ATTAC:K-RasLA1 mice; assay type: in vivo, mouse; set-up: dose or concentration left out as unconfirmed; details: INK-ATTAC3:K-RasLA1 and INK-ATTAC5:K-RasLA1 mice; from three weeks of age; twenty one days after treatment; FIG. 4
Source text: Briefly, INK-ATTAC (p16^Ink4a apoptosis through targeted activation of caspase) transgenic mice have an FK506-binding protein (FKBP)-caspase 8 (Casp8) fusion polypeptide under the control of the p16^Ink4a promoter (see FIG. 5 providing a vector sequence for the transgene and FIG. 6 providing sequences for components of the transgene including the promoter sequence). In the presence of AP20187, a synthetic drug that induces dimerization of a membrane bound myristoylated FKBP-Casp8 fusion protein, senescent cells specifically expressing the FKBP-Casp8 fusion protein via the p16^Ink4a promoter undergo programmed cell death (apoptosis) (see, e.g., Baker, Nature, supra, FIG. 1 therein). Two founder lines (INK-ATTAC^3 and INK-ATTAC^5) were each bred with the K-rasLA1 tumor model. […]
Two INK-ATTAC:K-RasLA1 were produced (one for INK-ATTAC line 3 and one for line 5). […] Twenty one days after treatment, the mice were sacrificed and tumor multiplicity in lungs was measured. […] In addition, metastasis and overall survival will be monitored after tumor induction in the presence or absence of p16-positive cells.

[2] = Behavior metrics in p16-3MR mice bearing MMTV-PymT tumors; assay type: in vivo, mouse
Procedure: (§1) The MMTV-PymT tumor cells (5×10^5 cells) were injected into a mammary fat pad of each mouse. Small primary tumors formed over a period of one week. Then doxorubicin (DOXO) at 10 mg/kg or vehicle only (PBS) was administered once at Day 7. Beginning three days after mice received DOXO, GCV was then administered daily for five days intraperitoneally at 25 mg/kg, or vehicle only was administered. Four different treatment groups of mice (7 mice per group) included (1) no doxorubicin (vehicle), no GCV (vehicle); (2) doxorubicin, no GCV; (3) no doxorubicin, GCV; and (4) doxorubicin, GCV. Bioluminescence in tissues was examined (after administering the firefly luciferase (fLUC) substrate) to monitor tumor formation (see FIG. 14).
(§2) Mice were housed in metabolic cages (Promethion, Sable Systems International, Las Vegas, Nev.) for a period of 4 days to monitor food consumption, water consumption, body mass, spontaneous activity and behavior, voluntary exercise, oxygen consumption, and carbon dioxide production. Three days after GCV treatment, animals were monitored for three nights, and the following nocturnal measurements were obtained: VO2 (mL/min); VCO2 (mL/min); food uptake (g); water uptake (g); Kcal/hr; and wheel run distance (m). The data represent the average of the three nocturnal measurements.
Behavior of animals treated doxorubicin or doxorubicin and GCV was assessed by several criteria accepted in the art as behavior metrics.

senescent cells [3] = assay: Detection and clearance of senescent cells by rLUC bioluminescence in irradiated p16-3MR mice; assay type: in vivo, mouse; details: 7 Gy X-ray, after three months GCV 25 mg/kg, lung tissue, FIG. 1A
Procedure: Briefly, a group of p16-3MR transgenic mice were exposed to whole body ionizing radiation (7 Gy X-ray) and a control group of p16-3MR transgenic mice were mock-irradiated. After three months, the mice were treated with GCV (25 mg/kg) or vehicle only, and then at least two weeks later bioluminescence in tissues was examined after administering the rLUC substrate.

p16INK4a and mRFP mRNAs = assay: Senescent cell biomarkers in skin biopsies of doxorubicin-treated p16-3MR mice; assay type: in vivo, mouse; details: doxorubicin 10 mg/kg, then vehicle or GCV 25 mg/kg daily for 7 days; FIG. 10
Procedure: (§3) Briefly, p16-3MR transgenic mice were treated with vehicle (ctrl) or 10 mg/kg doxorubicin. Seven days after doxorubicin treatment, mice were treated daily with GCV (25 mg/kg) for 7 days or vehicle only. 3 days after the last GCV treatment, 4×10^5 B16 mouse melanoma cells were injected subcutaneously into the p16-3MR transgenic mice, and mice were sacrificed after 12 days for analysis.
Skin biopsies were collected and measured for abundance of senescent cell biomarkers (p16INK4a and mRFP mRNAs).

[4] = tested on: p16INK4a, IL-6, MMP-3, mRFP expression; assay: RNA expression of SASP biomarkers and mRFP reporter after irradiation and GCV; assay type: in vivo, mouse
B16 mouse melanoma cells [5] = assay: B16 melanoma tail-vein engraftment in irradiated p16-3MR mice (primary tumors and metastases); assay type: in vivo
Procedure: Briefly, 10^6 B16 mouse melanoma cells, a highly aggressive cell line that is syngeneic with p16-3MR transgenic mice (C57B16 background), that express firefly luciferase (fLUC, to enable their detection by bioluminescence) were injected into the tail vein of the p16-3MR transgenic mice three months after being either mock irradiated or irradiated, as described in Example 2. B16 mouse melanoma cells first colonize the lung, where they form primary tumors approximately two weeks after injection, and thereafter metastasize to distal tissues to form secondary tumors in, for example, the pancreas, liver and visceral fat. The biolumninescence markers, fLUC and rLUC are distinguishable because the enzymes use different substrates.
As nodules are difficult to count in fat tissue, metastatic cells were represented as an estimated % of total area of fat.

B16 mouse melanoma cells [6] = assay: Subcutaneous B16 melanoma growth in doxorubicin-treated p16-3MR mice; assay type: in vivo; details: for tumor growth / primary tumors (B16 bioluminescence) / tumor diameters (tumor sizes): then vehicle or GCV, twelve days after B16 injection; for tumor growth / primary tumors (B16 bioluminescence): FIG. 11; for tumor diameters (tumor sizes): FIG. 12
Procedure: as §3

[7] = Behavior metrics in p16-3MR mice not injected with tumor cells; assay type: in vivo, mouse
Procedure: (§4) Groups of p16-3MR transgenic mice (5 mice per group) were treated once with doxorubicin (10 mg/kg) or vehicle only as described above. Three days later, GCV was administered 5× daily intraperitoneally at 25 mg/kg, or vehicle only was administered. Three different treatment groups of mice included (1) untreated (NT); (2) doxorubicin, no GCV (DOXO+PBS); (3) doxorubicin and GCV (DOXO+GCV). Mice were housed in metabolic cages for 5-8 days and monitored as described above.

senescent cells [8] = assay: Doxorubicin-induced senescent cells in tissues of p16-3MR mice (mRFP and p16INK4a mRNA); assay type: in vivo, mouse; details: doxorubicin 10 mg/kg
Source text: Similar results were observed when the senescent cell accumulation was induced with the chemotherapeutic agent, doxorubicin. […] Various tissues were isolated (liver, heart, lung, kidney, and spleen) and measured for abundance of mRNAs encoding mRFP and p16INK4a as markers for senescent cells (see FIGS. 9A and 9B, respectively).

[9] = Metabolic cage measurements in p16-3MR mice not injected with tumor cells; assay type: in vivo, mouse; details: doxorubicin 10 mg/kg once, GCV 25 mg/kg i.p. 5x daily
Procedure: as §4

[10] = Metabolic cage measurements in p16-3MR mice bearing MMTV-PymT tumors; assay type: in vivo, mouse; details: MMTV-PymT tumor mice; DOXO 10 mg/kg Day 7, GCV 25 mg/kg i.p. daily 5 days; average of three nocturnal measurements
Procedure: as §1, §2

[11] = GCV, fifteen days after B16 injection, FIG. 2C
[12] = MMTV-PymT tumor mice, 28 days after injection with tumor cells

SMILES: CC[C@H](C(=O)N1CCCC[C@H]1C(=O)O[C@H](CCc1ccc(OC)c(OC)c1)c1cccc(OCC(=O)NCC(CNC(=O)COc2cccc([C@@H](CCc3ccc(OC)c(OC)c3)OC(=O)[C@@H]3CCCCN3C(=O)[C@@H](CC)c3cc(OC)c(OC)c(OC)c3)c2)CN(C)C)c1)c1cc(OC)c(OC)c(OC)c1 [AP20187]
- tumor numbers (tumor multiplicity in lungs) [1]: significantly reduced

SMILES: Nc1nc(O)c2ncn(COC(CO)CO)c2n1 [GCV, ganciclovir]
- active behaviors (WHEEL, LLNGE, SLNGE) ([2]; tumor model animals treated with GCV after doxorubicin, vs doxorubicin only): significantly more active behaviors
- rLUC expression levels (bioluminescence in tissues) (senescent cells [3]): comparable to unirradiated mice
- senescence in skin biopsies measured by p16INK4a and mRFP expression (p16INK4a and mRFP mRNAs): low levels of p16INK4a and mRFP expression
- p16INK4a (p16), IL-6, MMP-3 and mRFP expression levels ([4]; irradiated p16-3MR mice treated with GCV, FIG. 1B): returned p16INK4a (p16), IL-6, MMP-3 and mRFP expression levels to those found in the unirradiated control mice
- effect on expression levels in wild-type mice ([4]; wild-type, non-transgenic C57B16 mice, data not shown): no detectable effect
- Detection of metastatic B16 melanoma cells: Fat (estimated % of total area of fat) (B16 mouse melanoma cells [5]; 18 days after injection): 25%
- Detection of metastatic B16 melanoma cells: Liver (luminescent metastatic nodules) (B16 mouse melanoma cells [5]; 18 days after injection): 7 ± 3.6 nodules
- Detection of metastatic B16 melanoma cells: Lung (luminescent nodules) (B16 mouse melanoma cells [5]; 18 days after injection): TNTC
- levels of B16 cells as detected by luminescence (B16 mouse melanoma cells [5]; GCV, day 18, FIG. 8): still showed relatively low levels of B16 cells
- primary lung tumors (B16 mouse melanoma cells [5]; GCV, eighteen days after injection, FIG. 3A): large primary lung tumors were evident
- metastases in distal organs (liver and fat tissue) (B16 mouse melanoma cells [5]; GCV, eighteen days after injection, FIG. 3A, 3C): almost devoid of metastases
- metastases (B16 mouse melanoma cells [5]; [11]): many fewer metastases
- primary tumors (B16 mouse melanoma cells [5]; [11]): much smaller primary tumors
- levels of B16 cells as detected by luminescence (B16 mouse melanoma cells [5]; GCV, fifteen days after injection, FIG. 8): relatively low levels of B16 cells
- tumor growth / primary tumors (B16 bioluminescence) (B16 mouse melanoma cells [6]; doxorubicin 10 mg/kg): much smaller primary tumors
- tumor diameters (tumor sizes) (B16 mouse melanoma cells [6]; doxorubicin 10 mg/kg): smaller tumor sizes
- size of B16 melanoma tumors (B16 mouse melanoma cells [6]; mice pre-treated with doxorubicin 10 mg/kg, GCV 25 mg/kg daily for 7 days): substantially reduced the size

- IHOME: Entered habitat (stable mass reading) [2, 12]: 4.86 ± 12.3
- LLNGE: Long lounge (>60 sec, no non-XY sensor interactions) [2, 12]: 72.06 ± 24.05
- SLNGE: Short lounge (5-60 sec, no non-XY sensor interactions) [2, 12]: 5.34 ± 3.64
- THOME: Interaction with habitat (no stable mass reading) [2, 12]: 1.16 ± 2.54
- WHEEL: Interaction with wheel (>=1 revolution) [2, 12]: 7.09 ± 10.84
- IHOME [7]: 1.86 ± 1.66
- LLNGE [7]: 61.46 ± 18.11
- SLNGE [7]: 6.94 ± 2.51
- THOME [7]: 1.15 ± 1.12
- WHEEL [7]: 9.58 ± 13.12
- Kcal/hr [9]: 0.34 ± 0.1 kcal/h
- VCO2 [9]: 1.1 ± 0.36 mL/min
- VO2 [9]: 1.14 ± 0.34 mL/min
- Wheel run distance (total m) [9]: 2708 ± 1867 m
- Kcal/hr [10]: 0.39 ± 0.1 kcal/h
- VCO2 [10]: 1.19 ± 0.35 mL/min
- VO2 [10]: 1.35 ± 0.33 mL/min
- Wheel run distance [10]: 3315 ± 1958 m
SMILES: COc1cccc2c1C(=O)c1c(O)c3c(c(O)c1C2=O)C[C@@](O)(C(=O)CO)C[C@@H]3O[C@H]1C[C@H](N)[C@H](O)[C@H](C)O1 [doxorubicin]
- presence of senescent cells in tissues (senescent cells [8]; p16-3MR mice): induced the persistent presence of senescent cells
- levels of mRFP and p16INK4a mRNA in tissues (senescent cells [8]; liver, heart, lung, kidney, spleen, vs untreated control mice, FIGS. 9A, 9B): higher levels of mRFP and p16INK4a in all tissues
- senescence in skin biopsies measured by p16INK4a and mRFP expression (p16INK4a and mRFP mRNAs): increased senescence
- growth of B16 melanoma cells injected subcutaneously (B16 mouse melanoma cells [6]; doxorubicin 10 mg/kg): stimulated the growth
- tumor growth / primary tumors (B16 bioluminescence) (B16 mouse melanoma cells [6]; doxorubicin 10 mg/kg): increased
- tumor diameters (tumor sizes) (B16 mouse melanoma cells [6]; doxorubicin 10 mg/kg): increased tumor sizes
